In the experiment the target is T1, Cholesteryl ester transfer protein (Homo sapiens, UniProt P11597).
T1 sequence (P11597 whole entry): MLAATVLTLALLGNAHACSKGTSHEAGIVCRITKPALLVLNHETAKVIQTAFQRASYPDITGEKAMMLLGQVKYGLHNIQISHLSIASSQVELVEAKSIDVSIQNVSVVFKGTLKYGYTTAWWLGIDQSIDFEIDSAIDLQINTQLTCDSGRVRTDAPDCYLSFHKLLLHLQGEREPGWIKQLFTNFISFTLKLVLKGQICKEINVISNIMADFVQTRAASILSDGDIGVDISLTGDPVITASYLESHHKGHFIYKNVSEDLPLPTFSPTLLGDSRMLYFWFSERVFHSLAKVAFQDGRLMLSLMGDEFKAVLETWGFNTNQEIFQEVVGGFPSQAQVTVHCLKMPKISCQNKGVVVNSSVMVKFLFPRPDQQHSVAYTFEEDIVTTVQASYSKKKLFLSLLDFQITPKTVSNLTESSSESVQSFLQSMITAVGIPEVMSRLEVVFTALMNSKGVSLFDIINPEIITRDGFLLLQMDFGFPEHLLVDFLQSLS
The experiment in a line: Scintillation Proximity Assay (SPA): First, low density lipoprotein (LDL) (Meridian) was biotinylated by incubating LDL with biotin for 1 hour on ice, after which it was dialyzed to remove free biotin. Then compounds at varying concentrations were incubated with 15 nM CETP (reagent production group, In Vitro Pharmacology, MRL Rahway) and 50 ug/ml of the biotinylated LDL in 50 mM HEPES, 150 mM NaCl, pH 7.4, for 1 hour at 37° C. The reaction was started by adding 3H-cholesterol ester high density lipoprotein (HDL) (American Radiochemicals Corp) at a concentration of 0.6 nM. The reaction proceeded for 2 hours at 37° C., after which time it was quenched by the addition of 12% acetic acid. PVT streptavadin-coated scintillation proximity beads, which had been brought to room temperature, were then added at a concentration of 4 mg/ml. The assay was then mixed and counted after one half hour in a Microbeta plate reader.

Molecules are shown by their SMILES.

What is called IC50 is the concentration that inhibits the measured activity by half. Read a low IC50 as greater potency in that assay. `COc1ncc(Cl)cc1-c1cnc(N2CC(F)C2)nc1CN1C(=O)O[C@H](c2cc(C(F)(F)F)cc(C(F)(F)F)c2)[C@@H]1C` returned an IC50 of 0.038 µM.
